Assay: Volatility of clomazone from spray solution: glass tube at 25° C. with air suction, loss determined by GC
Type: physicochemical
Details: 24 h; for reduction of volatility of Clomazone by compound (B): Test experiment 5, clomazone WP 100 g/ha, component B 335 g/ha
Experimental: However, a preferred method for determining the volatility of the compounds contained in the compositions according to the present invention is carried out as follows: Glass tubes (internal diameter 23 mm) are immersed in a water bath at 25° C. In the bottom of each of the glass tubes 100 μl of spray solution (component A and B diluted in water at the concentration that a farmer would typically spray) are applied with a pipette. A tube is inserted in the glass tube. The ending of the inserted tube stays 25 mm above the bottom of the glass tube (i.e. the test sample). Along the inserted tube, the air contained in each individual glass tube is constantly suctioned at 250 L/h for the whole system. All glass tubes are separated from the lid by spacers which ensure the inlet of fresh air to the glass tubes. After short time the test sample is evaporated. The system is stopped according to a defined sampling period, preferably after 24 hours. The glass tubes are taken out and washed with THF. The washing solution is analyzed by GC for the compound of interest, e.g. clomazone. The loss of compound is calculated in % of the total amount of compound applied in the initial 100 μl sample. The reference test samples for the quantification of the initial applied Clomazone contain also THF. Each value is generated from 3 to 4 independent measurements. This method allows determining the relative volatility of a certain compound depending on the additional compounds present in a certain composition.
Non-encapsulated Clomazone (as WP formulation) was prepared at 100 g/ha with 200 L water/ha. Paraffinic oil, rapeseed oil methyl ester and the aromatic solvent were added at 335 g/ha, while Dimethenamid was added at 500 g/ha. For the solvents, an appropriate emulsifier system was added. The sample size was 100 μl. The volatility test was carried out at 25° C. and the operating time was 24 h.
Solvents typically used in crop protection agents were tested for comparative purposes. As comparison dimethenamid (dimethenamid P) was also tested, but differently from example 1, the test sample solution was prepared at 335 g/ha.CE3 was included again. Two controls were included in the experiment. For the solvents, an appropriate emulsifier system was added. The volatility test was carried out at 25° C., the operating time was 24 h. The sample size was 100 μl.
Various fatty acid amides were tested as additional components in herbicidal compositions with respect to the question if volatility of clomazone in such compositions is affected. For the solvents, an appropriate emulsifier system was added. The volatility test was carried out at 25° C. the operating time was 24 h. The sample size was 100 μl. […]

Row | SMILES | reduction of volatility of Clomazone by compound (B) | effect on volatility of clomazone in the composition (Test experiment 1, clomazone WP 100 g/ha, dimethenamid 500 g/ha, solvents 335 g/ha) | effect on volatility of clomazone in herbicidal compositions (Test experiment 2, clomazone 100 g/ha, dimethenamid or solvent 335 g/ha)
1 | CCc1cccc(C)c1N(C(=O)CCl)C(C)COC (racemic) [Metolachlor, (RS)-2-ethyl-6-methyl-N-(1′-methyl-2′-methoxyethyl)-chloracetanilid] | support the claimed reduction of volatility of Clomazone |  | 
2 | COCC(C)N(C(=O)CCl)c1c(C)csc1C (stereo not shown) [Dimethenamid, R,S-2-Chloro-N-(2,4-dimethyl-3-thienyl)-N-(2-methoxy-1-methylethyl)acetamide] |  | significantly reduces the volatility of clomazone | significantly reduce the volatility of clomazone
3 | CCC(CC)Nc1c([N+](=O)[O-])cc(C)c(C)c1[N+](=O)[O-] [Pendimethalin, N-(1-ethylpropyl)-3,4-dimethyl-2,6-dinitrophenylamine] | support the claimed reduction of volatility of Clomazone |  | 
